Non-standard residues stand in square brackets, D forms with d. Residues, ends and D or L forms follow the SMILES beside them.
These compounds were tested against T1, Galanin receptor type 2 (Rattus norvegicus, UniProt O08726).
T1 sequence (O08726 whole entry): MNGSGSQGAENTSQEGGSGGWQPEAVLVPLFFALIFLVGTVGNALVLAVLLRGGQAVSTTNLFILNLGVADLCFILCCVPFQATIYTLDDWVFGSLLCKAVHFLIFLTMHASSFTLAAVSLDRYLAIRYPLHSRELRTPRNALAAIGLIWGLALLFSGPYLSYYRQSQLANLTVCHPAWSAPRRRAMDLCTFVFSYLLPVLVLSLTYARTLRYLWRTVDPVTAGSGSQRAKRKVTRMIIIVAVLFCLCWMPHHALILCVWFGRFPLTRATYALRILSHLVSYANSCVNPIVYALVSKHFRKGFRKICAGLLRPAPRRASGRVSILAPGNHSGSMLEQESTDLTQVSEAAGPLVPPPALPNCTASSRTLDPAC

Ki	Compound
1000 nM	CC[C@H](C)[C@H](NC(=O)[C@H](C)NC(=O)[C@H](Cc1c[nH]cn1)NC(=O)[C@@H]1CCCN1C(=O)CNC(=O)[C@H](CC(C)C)NC(=O)[C@H](CC(C)C)NC(=O)[C@H](Cc1ccc(O)cc1)NC(=O)CNC(=O)[C@H](C)NC(=O)[C@H](CO)NC(=O)[C@H](CC(N)=O)NC(=O)[C@H](CC(C)C)NC(=O)[C@@H](N)[C@@H](C)O)C(=O)N[C@@H](CC(=O)O)C(=O)N[C@@H](CC(N)=O)C(=O)N[C@@H](Cc1c[nH]cn1)C(=O)N[C@@H](CCCNC(=N)N)C(=O)N[C@@H](CO)C(=O)N[C@@H](Cc1ccccc1)C(=O)N[C@@H](CO)C(=O)N[C@@H](CC(=O)O)C(=O)N[C@@H](CCCCN)C(=O)N[C@@H](Cc1c[nH]cn1)C(=O)NCC(=O)N[C@@H](CC(C)C)C(=O)N[C@H](C(N)=O)[C@@H](C)O [Galanin (3-29), rat]
2.9 nM	CC[C@H](C)[C@H](NC(=O)[C@H](C)NC(=O)[C@H](Cc1c[nH]cn1)NC(=O)[C@@H]1CCCN1C(=O)CNC(=O)[C@H](CC(C)C)NC(=O)[C@H](CC(C)C)NC(=O)[C@H](Cc1ccc(O)cc1)NC(=O)CNC(=O)[C@H](C)NC(=O)[C@H](CO)NC(=O)[C@H](CC(N)=O)NC(=O)[C@H](CC(C)C)NC(=O)[C@@H](NC(=O)[C@@H](N)Cc1c[nH]c2ccccc12)[C@@H](C)O)C(=O)N[C@@H](CC(=O)O)C(=O)N[C@@H](CC(N)=O)C(=O)N[C@@H](Cc1c[nH]cn1)C(=O)N[C@@H](CCCNC(=N)N)C(=O)N[C@@H](CO)C(=O)N[C@@H](Cc1ccccc1)C(=O)N[C@@H](CO)C(=O)N[C@@H](CC(=O)O)C(=O)N[C@@H](CCCCN)C(=O)N[C@@H](Cc1c[nH]cn1)C(=O)NCC(=O)N[C@@H](CC(C)C)C(=O)N[C@H](C(N)=O)[C@@H](C)O [Galanin Porcine 2-29]
23 nM	CC(C)C[C@H](NC(=O)[C@H](CC(C)C)NC(=O)[C@@H](Cc1c[nH]c2ccccc12)NC(=O)[C@H](Cc1ccccc1)NC(=O)[C@@H](Cc1c[nH]c2ccccc12)NC(=O)[C@H](CCC(N)=O)NC(=O)[C@H](CCC(N)=O)NC(=O)[C@@H]1CCCN1C(=O)[C@H](CCCCN)NC(=O)[C@@H]1CCCN1C(=O)[C@@H](CCCNC(=N)N)NC(=O)[C@@H]1CCCN1C(=O)CNC(=O)[C@H](CC(C)C)NC(=O)[C@H](CC(C)C)NC(=O)[C@H](Cc1ccc(O)cc1)NC(=O)CNC(=O)[C@H](C)NC(=O)[C@H](CO)NC(=O)[C@H](CC(N)=O)NC(=O)[C@H](CC(C)C)NC(=O)[C@@H](NC(=O)[C@H](Cc1c[nH]c2ccccc12)NC(=O)CN)[C@@H](C)O)C(N)=O [Gal(1-13)-Std I] (H-GWTLNSAGYLLGP[dR]PKPQQ[dW]F[dW]LL-NH2)
1.9 nM	H-GWTLNSAGYLLGPPPALALA-NH2 [M40]
